We go through 72 compounds from PubChem BioAssay AID624456 (Sanford-Burnham Center for Chemical Genomics, 2012).

The data set deals with compound stability in 1x PBS, percent remaining. The data set is described as follows: compound stability in phosphate-buffered saline, ADME assay, biochemical, 1x PBS, with and without 50% ACN, set 2 (AID 624456).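 Also: percent left after two days of incubation at room temperature.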
Where [1] appears, read: measured here: stability in PBS with 50% ACN.

SMILES strings stand for the structures.

The compound `Cc1ccnc(NC(=O)CCCOc2cc(=O)n(C)c3ccccc23)c1` returned a stability of 93.8%. Under setting [1], this compound registered a stability of 100%.

In turn, `O=C(O)c1cccnc1SCCc1ccccc1` displayed a stability of 96.5%. The compound also had a stability under setting [1] of 100%. For `CCCn1ncc(CN2CCCC(C(=O)c3cccc(OC(C)C)c3)C2)c1C` (stereo not drawn) the same measures were 100% and 100%. Consider `Cc1ccc(NS(=O)(=O)c2ccc3c(c2)CCC(=O)N3)cc1C`, for which the stability came out at 68.5%. This compound displayed a stability under setting [1] of 100%. The corresponding values for `Cc1cccc(-n2cnc3cc(C(=O)N4CCCCC4)ccc32)c1` are 43.5% and 80%. `COc1ccccc1N(/N=C1\Sc2ccccc2C1=O)C(C)=O` came in with a stability of 81.6%. Under setting [1], this compound displayed a stability of 88.1%. The corresponding values for `CCN1CCN(c2nc3ccccc3nc2C(C#N)C(=O)OC2CCCCC2)CC1` (stereo not drawn) are 33.4% and 80.1%. The corresponding values for `Cc1cc(C)nc(-n2nc(C)c(Sc3ccc(F)cc3)c2N)n1` are 56% and 100%.

As for `O=c1[nH]c(SCc2ccc(Cl)cc2)nc2c1CCC2`, the stability came out at 98.3%. In addition, under setting [1], the stability came out at 100%.

`O=C1CCCC2=C1C1(CCCC1)N=C(Nc1nc3ccccc3o1)N2` had a stability of 21.9%. Moreover, under setting [1], the stability is 90.2%. The corresponding values for `CC(=O)c1ccc(N2CCN(S(=O)(=O)c3ccc4c(c3)CC(=O)N4)CC2)cc1` are 95.7% and 100%. Consider `Cc1ccc(N2CCN(S(=O)(=O)N3CCCCC3)CC2)c(C)c1`, for which the stability was 15.1%. The stability under setting [1] worked out at 96.7%. In the case of `Cc1ccc(NC(=O)CCC(=O)N/N=C/c2ccc([N+](=O)[O-])o2)cc1C`, the stability is 51.3%. Further, under setting [1], the stability amounted to 65.6%. In turn, `O=C1NCCCc2c1oc1ccc(O)cc21` yielded a stability of 100%. The compound further showed a stability under setting [1] of 100%.

In turn, `CS(=O)(=O)c1ccc(C(=O)OCC(=O)NC23CC4CC(CC(C4)C2)C3)cc1[N+](=O)[O-]` registered a stability of 12.8%. Under setting [1], this compound yielded a stability of 100%. For `COc1ccc(OC)c(S(=O)(=O)Nc2cnc3ccccc3c2)c1`, the stability came out at 89.6%. Also, the stability under setting [1] was determined as 93%.

On to `O=C(COC(=O)C12CC3CC(CC(C3)C1)C2)NCc1ccco1`, for which the stability amounted to 49.6%. The compound also showed a stability under setting [1] of 88.2%. The corresponding values for `CN(C)c1oc(-c2ccc(OCc3ccc(Cl)cc3)cc2)nc1C#N` are 9.08% and 100%.

With `COc1ccc(S(=O)(=O)N2CCN(S(=O)(=O)c3ccc4c(c3)OCCO4)CC2)cc1`, the stability is 72.3%. For the same compound, under setting [1], the stability was found to be 80.8%. The corresponding values for `c1ccc(CC2CCN(c3ncnc4sccc34)CC2)cc1` are 6.42% and 93.2%. The corresponding values for `Cc1cc2c(s1)c1cnn(Cc3ccccc3F)c(=O)c1n2C` are 20.4% and 86.7%. For `c1ccc2c(Nc3nnc(-c4ccncc4)s3)cccc2c1`, the stability is 84.2%. Further, the stability under setting [1] came out at 100%. For `COc1ccc(N(C(=O)CCl)C(C(=O)NCCc2ccccc2)c2cccs2)cc1Cl` (stereo not drawn) the same measures were 71.8% and 100%.

In turn, `O=C(O)c1ccccc1OCc1ccccc1Br` registered a stability of 98.8%. Besides, the stability under setting [1] was determined as 100%. For `NC(=O)C1CCN(c2nc(-c3ccc(Br)cc3)cs2)CC1` the same measures were 70.8% and 100%. For `COc1ccc(C2CC(c3ccccc3)=NN2c2ccc(S(N)(=O)=O)cc2)cc1` (stereo not drawn) the same measures were 58.2% and 90.9%. `CCCC(=O)Nc1cccc(NC(=O)c2ccccc2Br)c1` came in with a stability of 79.5%. Under setting [1], this compound displayed a stability of 86.7%. `O=C(COc1ccccc1Br)NCCc1nc2ccccc2[nH]1`: the stability worked out at 92.1%. Under setting [1], this compound yielded a stability of 100%. `Cc1nc(SCc2nc3ccccc3[nH]2)c2oc3ccccc3c2n1`: the stability stood at 74.2%. The stability under setting [1] is 84.7%. For `Cc1ccc(C(=O)n2c3ccccc3c3ccccc32)cc1` the same measures were 77.2% and 74.6%. Take `COC(=O)c1ccccc1NC(=O)c1ccc(F)cc1`: the stability is 11.2%. The compound also gave a stability under setting [1] of 93.4%. The corresponding values for `O=S(=O)(NC1CCCCC1N1CCOCC1)c1ccc(Cl)cc1` (stereo not drawn) are 75% and 89.4%.

For the compound `COc1ccc(C2c3c(ncn(CCN4CCOCC4)c3=N)Oc3ccc4ccccc4c32)cc1OC` (stereo not drawn), the stability turned out to be 76.7%. The stability under setting [1] turned out to be 85.6%.

As for `Cc1ccc(S(=O)(=O)NCc2ccc(C(=O)NCCN(Cc3ccccc3)C(C)C)cc2)cc1`, the stability came to 84.8%. The stability under setting [1] amounted to 100%. The corresponding values for `Cc1cc(C(=O)CN2C(=O)CCC2=O)c(C)n1Cc1ccccc1` are 73% and 85.4%.

Compound `CCCN(CCC)CCNC(=O)C1CCN(Cc2nc(-c3ccc(Cl)cc3)oc2C)CC1` had a stability of 99.4%. The compound also came in with a stability under setting [1] of 100%. Consider `Brc1cc2c(cc1C1Nc3ccccc3C3C=CCC31)OCO2` (stereo not drawn), for which the stability worked out at 0.38%. For the same compound, the stability under setting [1] stood at 68.9%. For the compound `CCCc1cc(C(=O)N(C2CCCCC2)C2CCCCC2)no1`, the stability turned out to be 6.53%. Moreover, the stability under setting [1] is 76.7%. The corresponding values for `COc1ccc(OC)c(-c2nnc3n2N=C(c2ccc(OC)c(OC)c2)CS3)c1` are 89.6% and 99.6%. The corresponding values for `Cc1ccc(S(=O)(=O)n2c(N)nc3ccccc32)cc1` are 97.8% and 98.8%. For `COc1ccc(S(=O)(=O)n2nc(OC(=O)c3ccccc3)cc2N)cc1` the same measures were 11.1% and 91.8%.

`Cn1nnnc1Sc1ncnc2scc(-c3ccccc3)c12` had a stability of 85%. Under setting [1], the stability came out at 95.1%.

`CC[C@H]1CN2CCc3cc(OC)c(OC)cc3[C@@H]2C[C@@H]1C[C@H]1NCCc2cc(OC)c(OC)cc21` displayed a stability of 23.6%. This compound also displayed a stability under setting [1] of 90%. For `COc1cccc(-c2nc(-c3ccc(NC(=O)Cc4ccccc4OC)cc3)no2)c1` the same measures were 81.5% and 90.4%.

Compound `CSc1nc(-c2ccc(C)cc2)nc(C(Cl)Cl)n1` gave a stability of 0.45%. Besides, the stability under setting [1] amounted to 96.5%. The corresponding values for `CCCc1nc2c(=O)n(C)c(=O)nc-2n(C)n1` are 100% and 100%. Consider `N#Cc1ccccc1CSc1nc2ncc(Br)cc2[nH]1`, for which the stability turned out to be 60.5%. Further, the stability under setting [1] is 55.9%. The corresponding values for `CCc1oc2ccccc2c1C(=O)c1cc(Br)c(O)c(Br)c1` are 100% and 100%. The corresponding values for `Brc1ccc2c(c1)CN1CCCC1=N2` are 92.9% and 93.4%. In the case of `CCOc1ccc(-c2nc(-c3ccncc3)no2)cc1OCC`, the stability stood at 59.9%. For the same compound, the stability under setting [1] stood at 100%. In the case of `C=CCn1c(SCC(=O)c2ccc(O)c(O)c2)nnc1-c1ccccc1OC`, the stability came to 82.6%. Moreover, the stability under setting [1] was 100%. For `O=c1[nH]c2c(s1)C(c1cccnc1)C1C3CCC(C3)C1S2` (stereo not drawn) the same measures were 55% and 66.5%. The corresponding values for `O=C(c1ccccn1)N(Cc1cccs1)C1(C(=O)NC2CCCCC2)CCCCC1` are 93.9% and 97.5%. In turn, `Cn1cnc([N+](=O)[O-])c1Sc1ncnc2nc[nH]c12` displayed a stability of 31.9%.

Turning to `COc1ccc(CNCc2cccc3ccccc23)cc1`, the stability was found to be 50.6%. This compound displayed a stability under setting [1] of 100%. As for `COc1nc(-c2ccccc2)nnc1-c1ccccc1`, the stability is 10.1%. Under setting [1], this compound showed a stability of 98.9%. For the compound `CCc1nnc(NC(=O)c2ccc(NS(=O)(=O)c3ccccc3)cc2)s1`, the stability was determined as 86%. Also, under setting [1], the stability was 95.2%.

Regarding `O=C(O)c1ccc(N2C(=O)/C(=C/c3ccc(-c4ccc([N+](=O)[O-])cc4)o3)C=C2c2ccccc2)cc1`, the stability worked out at 14.5%. Further, the stability under setting [1] came to 62.9%. For `N#C/C(=C\c1ccc([N+](=O)[O-])o1)c1nc2ccccc2[nH]1` the same measures were 52.4% and 100%.

The compound `Cc1ccc(C)c(OCCn2cc(C(=O)O)c3ccccc32)c1` gave a stability of 90.3%. Under setting [1], this compound yielded a stability of 100%.

As for `CC(C)C(=O)NC(c1ccco1)c1ccc2cccnc2c1O` (stereo not drawn), the stability worked out at 92.9%. This compound registered a stability under setting [1] of 100%.

`O=C(O)CCC(NS(=O)(=O)c1ccc(-c2ccccc2)cc1)C(=O)O` (stereo not drawn) yielded a stability of 100%. Besides, under setting [1], the stability came to 100%.

In the case of `O=C(CCNS(=O)(=O)c1cccc2nsnc12)N1CCN(c2ccccn2)CC1`, the stability was determined as 91.6%. Under setting [1], this compound registered a stability of 100%.

`COc1ccc(CSc2nc(C)cc(=O)[nH]2)cc1` gave a stability of 88.5%. Besides, under setting [1], the stability came out at 99.8%.

The compound `CC1CCCN(C(C(=O)Nc2ccc3c(c2)OCCO3)c2ccccc2)C1` (stereo not drawn) displayed a stability of 100%. Further, the stability under setting [1] stood at 100%. `O=S1(=O)Nc2c(ccc3cccnc23)-c2ccccc21` had a stability of 91.3%. This compound returned a stability under setting [1] of 94.9%. In the case of `Cc1ccc(-n2c(N)c(C#N)c(-c3ccccc3)c(C#N)c2=O)cc1`, the stability stood at 81.4%. The same compound showed a stability under setting [1] of 98.2%. The compound `O=[N+]([O-])c1ccc(CN2CCOCCOCCN(Cc3ccc([N+](=O)[O-])cc3)CCOCC2)cc1` returned a stability of 96.1%. Under setting [1], this compound registered a stability of 100%. In turn, `O=C1C2CC=CCC2C(=O)N1c1n[nH]c(-c2ccccc2)n1` (stereo not drawn) had a stability of 50.8%. Under setting [1], this compound had a stability of 100%.

For the compound `c1ccc(-c2nnc(N3CCOCC3)nc2-c2ccccc2)cc1`, the stability turned out to be 57.4%. Under setting [1], this compound had a stability of 100%. For `O=C(CSc1cccc2cccnc12)N1CCCC1` the same measures were 100% and 100%. The corresponding values for `Cc1cc(-c2nnc3n2CCCCC3)c(C)n1-c1ccccc1` are 100% and 100%.
